The record followed here is ChEMBL document CHEMBL4765354, “Structure guided design of potent indole-based ATX inhibitors bearing hydrazone moiety with tumor suppression effects” (Eur J Med Chem, 2020).

A value given as a limit tells only on which side of the number the result lay.

Experiment [1] deals with MDA-MB-231. In words: Antiproliferative activity against human MDA-MB-231 cells measured after 72 hrs by MTT assay. The class given is functional, cell-based. Conditions: MDA-MB-231, 72 h. Background: Tetrazolium assays rely on reduction of a dye to a coloured formazan, in cell work by metabolically active cells.
The subject of experiment [2] is NCI-H2228. In words: Antiproliferative activity against human NCI-H2228 cells measured after 72 hrs by MTT assay. The class given is functional, cell-based. Conditions: NCI-H2228, 72 h.
The test system of experiment [3] is MCF7. In words: Antiproliferative activity against human MCF7 cells measured after 72 hrs by MTT assay. In kind it is functional, cell-based. Conditions: MCF7, 72 h.
For experiment [4], the target named is Autotaxin (Homo sapiens, UniProt Q13822). As to the kind of experiment: Inhibition of human C-terminal His6-tagged ATX beta expressed in Sf9 insect cells using FS-3 as substrate preincubated for 45 mins followed by substrate addition and measured at 1 min interval for 30 mins by fluorescence assay.
Experiment [5] deals with A549. In words: Antiproliferative activity against human A549 cells measured after 72 hrs by MTT assay. The class given is functional, cell-based. Conditions: A549, 72 h.

For `CCn1cc(/C(=N/Nc2nc3ccccc3s2)C(F)(F)F)c2cc(-c3nc(CN4CCC(O)CC4)cs3)ccc21`, the IC50 – broadly, the midpoint of a concentration-inhibition curve – is 310 nM in experiment [1]; 7180 nM in experiment [2]; 430 nM in experiment [3]; 2.1 nM in experiment [4]; 11000 nM in experiment [5].
With `COc1ccc(-c2nc(N/N=C(/c3c(C)[nH]c4cc(F)c(N5CCN(CCN(C)C)CC5)cc34)C(F)(F)F)sc2C#N)cc1`, the IC50 was 1230 nM in experiment [1]; 11500 nM in experiment [2]; 2910 nM in experiment [3]; 167 nM in experiment [4]; more than 15000 nM in experiment [5].
For the compound `Cn1cc(/C(=N/Nc2nc(-c3ccc(Cl)cc3)c(C#N)s2)C(F)(F)F)c2cc(-c3nc(CN4CCOCC4)cs3)ccc21`, the IC50 in experiment [1] was 2720 nM; in experiment [2] it was more than 15000 nM; in experiment [3] it was 3250 nM; in experiment [4] it was 2970 nM; in experiment [5], 9410 nM.
The like results for `Cn1cc(/C(=N/Nc2nc(-c3ccc(F)cc3)c(C#N)s2)C(F)(F)F)c2cc(-c3nc(CN4CCC(O)CC4)cs3)ccc21` were, in that order, 4510 nM, 9650 nM, 4830 nM, 1720 nM and 9210 nM.
For `Cc1[nH]c2cc(F)c(N3CCN(CCN(C)C)CC3)cc2c1/C(=N/Nc1nc(-c2ccc(F)cc2)c(C#N)s1)C(F)(F)F`, in that order: 790 nM, more than 15000 nM, 1010 nM, 19 nM and 13400 nM.
